Results published in ChEMBL document CHEMBL5303573, “Mapping human microbiome drug metabolism by gut bacteria and their genes” (Nature, 2019).

Key:
[1] = The drug is tested on Collinsella intestinalis strain: DSM13280 for biotransformation. The drug concentrations were measured before and after a 12-h incubation by liquid-chromatography-coupled mass spectrometry (LC–MS); settings: 2 µM
[2] = The drug is tested on Anaerococcus hydrogenalis strain: DSM7454 for biotransformation. The drug concentrations were measured before and after a 12-h incubation by liquid-chromatography-coupled mass spectrometry (LC–MS); settings: 2 µM
[3] = The drug is tested on Blautia luti strain: DSM14534 for biotransformation. The drug concentrations were measured before and after a 12-h incubation by liquid-chromatography-coupled mass spectrometry (LC–MS); assay type: ADME; design: dose 2 uM, timepoint 0 vs 12 hours; settings: 2 µM
[4] = bacteroides intestinalis, 12 h, 2 µM
Description: The drug is tested on Bacteroides intestinalis strain: DSM17393 for biotransformation. The drug concentrations were measured before and after a 12-h incubation by liquid-chromatography-coupled mass spectrometry (LC–MS)

[5] = The drug is tested on Odoribacter splanchnicus strain: fecal isolate for biotransformation. The drug concentrations were measured before and after a 12-h incubation by liquid-chromatography-coupled mass spectrometry (LC–MS); settings: 2 µM
[6] = The drug is tested on Eubacterium ventriosum strain: ATCC27560 for biotransformation. The drug concentrations were measured before and after a 12-h incubation by liquid-chromatography-coupled mass spectrometry (LC–MS); assay type: ADME; design: dose 2 uM, timepoint 0 vs 12 hours; settings: 2 µM
[7] = The drug is tested on Bifidobacterium longum subsp. Infantis strain: CCUG52486 for biotransformation. The drug concentrations were measured before and after a 12-h incubation by liquid-chromatography-coupled mass spectrometry (LC–MS); settings: 2 µM
[8] = limosilactobacillus reuteri cf48-3a, 12 h, 2 µM
Description: The drug is tested on Lactobacillus reuteri CF48-3A strain: BEI HM-102 for biotransformation. The drug concentrations were measured before and after a 12-h incubation by liquid-chromatography-coupled mass spectrometry (LC–MS)

[9] = segatella copri, 12 h, 2 µM
Description: The drug is tested on Prevotella copri strain: DSM18205 for biotransformation. The drug concentrations were measured before and after a 12-h incubation by liquid-chromatography-coupled mass spectrometry (LC–MS)

[10] = The drug is tested on Eubacterium rectale strain: ATCC33656 for biotransformation. The drug concentrations were measured before and after a 12-h incubation by liquid-chromatography-coupled mass spectrometry (LC–MS); settings: agathobacter rectalis, 2 µM
[11] = The drug is tested on Ruminococcus torques strain: ATCC27756 for biotransformation. The drug concentrations were measured before and after a 12-h incubation by liquid-chromatography-coupled mass spectrometry (LC–MS); assay type: ADME; design: dose 2 uM, timepoint 0 vs 12 hours; settings: 2 µM
[12] = The drug is tested on Parabacteroides merdae strain: ATCC43184 for biotransformation. The drug concentrations were measured before and after a 12-h incubation by liquid-chromatography-coupled mass spectrometry (LC–MS); settings: 2 µM
[13] = bacteroides fragilis, 12 h, 2 µM
Description: The drug is tested on Bacteroides fragilis strain: DS-208 for biotransformation. The drug concentrations were measured before and after a 12-h incubation by liquid-chromatography-coupled mass spectrometry (LC–MS)

[14] = The drug is tested on Clostridium asparagiforme strain: DSM15981 for biotransformation. The drug concentrations were measured before and after a 12-h incubation by liquid-chromatography-coupled mass spectrometry (LC–MS); assay type: ADME; design: dose 2 uM, timepoint 0 vs 12 hours; settings: enterocloster asparagiformis, 2 µM
[15] = The drug is tested on Bacteroides vulgatus strain: ATCC8482 for biotransformation. The drug concentrations were measured before and after a 12-h incubation by liquid-chromatography-coupled mass spectrometry (LC–MS); settings: phocaeicola vulgatus, 2 µM
[16] = The drug is tested on Bacteroides cellulosilyticus strain: DSM14838 for biotransformation. The drug concentrations were measured before and after a 12-h incubation by liquid-chromatography-coupled mass spectrometry (LC–MS); settings: 2 µM
[17] = The drug is tested on Clostridium sporogenes strain: ATCC15579 for biotransformation. The drug concentrations were measured before and after a 12-h incubation by liquid-chromatography-coupled mass spectrometry (LC–MS); settings: 2 µM
[18] = bacteroides thetaiotaomicron, 12 h, 2 µM
Description: The drug is tested on Bacteroides thetaiotaomicron strain: 3731 for biotransformation. The drug concentrations were measured before and after a 12-h incubation by liquid-chromatography-coupled mass spectrometry (LC–MS)

[19] = The drug is tested on Escherichia coli strain: BW25113 for biotransformation. The drug concentrations were measured before and after a 12-h incubation by liquid-chromatography-coupled mass spectrometry (LC–MS); settings: 2 µM
[20] = The drug is tested on Eggerthella lenta strain: ATCC25559 for biotransformation. The drug concentrations were measured before and after a 12-h incubation by liquid-chromatography-coupled mass spectrometry (LC–MS); settings: 2 µM

| SMILES | Bacterial Biotransformation [1] | Bacterial Biotransformation [2] | Bacterial Biotransformation [3] | Bacterial Biotransformation [4] | Bacterial Biotransformation [5] | Bacterial Biotransformation [6] | Bacterial Biotransformation [7] | Bacterial Biotransformation [8] | Bacterial Biotransformation [9] | Bacterial Biotransformation [10] | Bacterial Biotransformation [11] | Bacterial Biotransformation [12] | Bacterial Biotransformation [13] | Bacterial Biotransformation [14] | Bacterial Biotransformation [15] | Bacterial Biotransformation [16] | Bacterial Biotransformation [17] | Bacterial Biotransformation [18] | Bacterial Biotransformation [19] | Bacterial Biotransformation [20] |
| --- | --- | --- | --- | --- | --- | --- | --- | --- | --- | --- | --- | --- | --- | --- | --- | --- | --- | --- | --- | --- |
| C=C[C@H]1CN2CC[C@H]1C[C@H]2[C@H](O)c1ccnc2ccc(OC)cc12.C=C[C@H]1CN2CC[C@H]1C[C@H]2[C@H](O)c1ccnc2ccc(OC)cc12.O.O.O=S(=O)(O)O [QUININE SULFATE] | Compound NOT metabolized | Compound NOT metabolized | Compound NOT metabolized | Compound NOT metabolized | Compound NOT metabolized | Compound NOT metabolized | Compound NOT metabolized | Compound NOT metabolized | Compound NOT metabolized | Compound NOT metabolized | Compound NOT metabolized | – | – | – | – | – | – | – | – | – |
| CC(C)(C)NCC(O)COc1cccc2c1CC(O)C(O)C2 (configuration not stated) [NADOLOL] | Compound NOT metabolized | Compound NOT metabolized | Compound NOT metabolized | Compound NOT metabolized | Compound NOT metabolized | Compound NOT metabolized | Compound NOT metabolized | Compound NOT metabolized | Compound NOT metabolized | – | Compound NOT metabolized | Compound NOT metabolized | Compound NOT metabolized | Compound NOT metabolized | Compound NOT metabolized | Compound NOT metabolized | Compound NOT metabolized | – | – | – |
| CC(C)(C)NC[C@H](O)COc1ccccc1C1CCCC1.CC(C)(C)NC[C@H](O)COc1ccccc1C1CCCC1.O=S(=O)(O)O [PENBUTOLOL SULFATE] | Compound NOT metabolized | Compound NOT metabolized | Compound NOT metabolized | Compound NOT metabolized | Compound NOT metabolized | Compound NOT metabolized | Compound NOT metabolized | Compound NOT metabolized | – | Compound NOT metabolized | Compound NOT metabolized | Compound NOT metabolized | – | Compound NOT metabolized | Compound metabolized | Compound NOT metabolized | Compound NOT metabolized | Compound NOT metabolized | Compound NOT metabolized | – |
| COC(=O)C(c1ccccc1)C1CCCCN1 (configuration not stated) [METHYLPHENIDATE] | Compound NOT metabolized | – | – | Compound NOT metabolized | – | Compound NOT metabolized | Compound NOT metabolized | – | – | – | Compound NOT metabolized | – | Compound NOT metabolized | – | – | – | Compound metabolized | Compound NOT metabolized | Compound metabolized | Compound metabolized |
| CCN(CC)CCNC(=O)c1cc(S(C)(=O)=O)ccc1OC [TIAPRIDE] | Compound NOT metabolized | Compound NOT metabolized | Compound NOT metabolized | Compound NOT metabolized | Compound NOT metabolized | – | Compound NOT metabolized | Compound NOT metabolized | – | Compound NOT metabolized | Compound NOT metabolized | Compound NOT metabolized | – | – | Compound NOT metabolized | – | Compound NOT metabolized | Compound NOT metabolized | Compound NOT metabolized | – |
| COc1c2occc2cc2ccc(=O)oc12 [METHOXSALEN] | – | Compound NOT metabolized | – | Compound metabolized | Compound metabolized | Compound NOT metabolized | – | Compound NOT metabolized | Compound NOT metabolized | – | Compound NOT metabolized | – | – | Compound metabolized | – | Compound metabolized | Compound metabolized | – | Compound NOT metabolized | – |
| Cc1cc(C)cc(OCC2CNC(=O)O2)c1 (configuration not stated) [METAXALONE] | Compound NOT metabolized | Compound NOT metabolized | Compound NOT metabolized | Compound NOT metabolized | Compound NOT metabolized | Compound NOT metabolized | Compound NOT metabolized | Compound NOT metabolized | – | Compound NOT metabolized | – | – | – | – | Compound metabolized | – | Compound NOT metabolized | Compound NOT metabolized | – | Compound NOT metabolized |
| COc1ccc(/C=C/C(=O)Nc2ccccc2C(=O)O)cc1OC | Compound NOT metabolized | Compound metabolized | Compound NOT metabolized | Compound NOT metabolized | Compound NOT metabolized | – | Compound NOT metabolized | Compound NOT metabolized | Compound metabolized | Compound NOT metabolized | Compound NOT metabolized | Compound NOT metabolized | Compound NOT metabolized | – | – | Compound NOT metabolized | Compound NOT metabolized | Compound NOT metabolized | Compound NOT metabolized | – |
| NC(CO)(CO)CO.O=C(c1ccccc1)c1ccc2n1CCC2C(=O)O (configuration not stated) [KETOROLAC TROMETHAMINE] | – | Compound NOT metabolized | Compound NOT metabolized | Compound NOT metabolized | Compound NOT metabolized | Compound NOT metabolized | Compound NOT metabolized | Compound NOT metabolized | Compound metabolized | Compound NOT metabolized | – | – | Compound metabolized | Compound NOT metabolized | Compound metabolized | Compound NOT metabolized | Compound NOT metabolized | Compound metabolized | Compound NOT metabolized | – |
| Cc1ccc(/C(=C\CN2CCCC2)c2ccccn2)cc1 [TRIPROLIDINE] | Compound NOT metabolized | Compound NOT metabolized | Compound NOT metabolized | Compound NOT metabolized | Compound NOT metabolized | Compound NOT metabolized | – | Compound NOT metabolized | Compound NOT metabolized | – | Compound NOT metabolized | Compound NOT metabolized | Compound NOT metabolized | – | Compound NOT metabolized | – | Compound NOT metabolized | Compound NOT metabolized | – | Compound NOT metabolized |
| O=C(NC(Cc1cc(=O)[nH]c2ccccc12)C(=O)O)c1ccc(Cl)cc1 (configuration not stated) [REBAMIPIDE] | Compound NOT metabolized | Compound NOT metabolized | Compound NOT metabolized | Compound NOT metabolized | Compound NOT metabolized | – | Compound NOT metabolized | – | Compound NOT metabolized | Compound NOT metabolized | Compound NOT metabolized | Compound NOT metabolized | – | Compound NOT metabolized | – | Compound NOT metabolized | – | Compound NOT metabolized | – | – |
